{"source": "patent US7763463B2", "about": "“Use of cyclic AMP and ascorbic acid to produce dopaminergic neurons from embryonic stem cells” (Geron Corporation, priority 2000, dated 2010)", "molecules": {"B1": {"name": "follistatin: TGF-β superfamily antagonist (protein, UniProt P19883 30-344, looked up)", "Follistatin": "GNCWLRQAKNGRCQVLYKTELSKEECCSTGRLSTSWTEEDVNDNTLFKWMIFNGGAPNCIPCKETCENVDCGPGKKCRMNKKNKPRCVCAPDCSNITWKGPVCGLDGKTYRNECALLKARCKEQPELEVQYQGRCKKTCRDVFCPGSSTCVVDQTNNAYCVTCNRICPEPASSEQYLCGNDGVTYSSACHLRKATCLLGRSIGLAYEGKCIKAKSCEDIQCTGGKKCLWDFKVGRGRCSLCDELCPDSKSDEPVCASDNATYASECAMKEAACSSGVLLEVKHSGSCNSISEDTEEEEEDEDQDYSFPISSILEW"}, "B2": {"name": "noggin: TGF-β superfamily antagonist (protein, UniProt Q13253 28-232, looked up)", "Noggin": "QHYLHIRPAPSDNLPLVDLIEHPDPIFDPKEKDLNETLLRSLLGGHYDPGFMATSPPEDRPGGGGGAAGGAEDLAELDQLLRQRPSGAMPSEIKGLEFSEGLAQGKKQRLSKKLRRKLQMWLWSQTFCPVLYAWNDLGSRFWPRYVKVGSCFSKRSCSVPEGMVCKPSKSVHLTVLRWRCQRRGGQRCGWIPIQYPIISECKCSC"}, "B3": {"name": "BDNF: brain derived neurotrophic factor, member of the neurotrophin growth factor family (protein, UniProt P23560 19-247, looked up)", "Neurotrophic factor BDNF …": "APMKEANIRGQGGLAYPGVRTHGTLESVNGPKAGSRGLTSLADTFEHVIEELLDEDQKVRPNEENNKDADLYTSRVMLSSQVPLEPPLLFLLEEYKNYLDAANMSMRVRRHSDPARRGELSVCDSISEWVTAADKKTAVDMSGGTVTVLEKVPVSKGQLKQYFYETKCNPMGYTKEGCRGIDKRHWNSQCRTTQSYVRALTMDSKKRIGWRFIRIDTSCVCTLTIKRGR"}, "B4": {"name": "neurotrophin-3: member of the neurotrophin growth factor family (protein, UniProt P20783 139-257, looked up)", "Neurotrophin-3": "YAEHKSHRGEYSVCDSESLWVTDKSSAIDIRGHQVTVLGEIKTGNSPVKQYFYETRCKEARPVKNGCRGIDDKHWNSQCKTSQTYVRALTSENNKLVGWRWIRIDTSCVCALSRKIGRT"}}, "assay_type_in_all_cases": "cell-based, human", "key": {"hES cell derived neurons": {"system": "hES cell derived neurons", "test": "Fura-2 imaging of calcium flux", "conditions": "of the 53 cells tested; cells responding to GABA, acetylcholine, ATP and elevated potassium; 0.5 mM neurotransmitter, ATP 10 μM", "method": "Standard fura-2 imaging of calcium flux was used to investigate the functional properties of the hES cell derived neurons. Neurotransmitters studied included GABA, glutamate (E), glycine (G), elevated potassium (50 mM K^+ instead of 5 mM K^+), ascorbic acid (control), dopamine, acetylcholine (ACh) and norepinephrine. The solutions contained 0.5 mM of the neurotransmitter (except ATP at 10 μM) in rat Ringers (RR) solution: 140 mM NaCl, 3 mM KCl, 1 mM MgCl2, 2 mM CaCl2, 10 mM HEPES buffer, and 10 mM glucose. External solutions were set to pH 7.4 using NaOH. Cells were perfused in the recording chamber at 1.2-1.8 mL/min, and solutions were applied by bath application using a 0.2 mL loop injector located ˜0.2 mL upstream of the bath import. Transient rises in calcium were considered to be a response if the calcium levels rose above 10% of the baseline value within 60 sec of application, and returned to baseline within 1-2 min."}, "[1]": {"system": "embryoid bodies from hES cells", "test": "Embryoid bodies with or without retinoic acid, then NT-3/BDNF; MAP-2 staining", "conditions": "embryoid bodies maintained in 10 μM RA 4 days; then mitogens, then 10 ng/mL NT-3 and BDNF; without RA ~5%", "method": "To generate terminally differentiated neurons, the first stage of differentiation was induced by forming embryoid bodies in FBS medium with or without 10 μM retinoic acid (RA). After 4 days in suspension, embryoid bodies were plated onto fibronectin-coated plates in defined medium supplemented with 10 ng/mL human EGF, 10 ng/mL human bFGF, 1 ng/mL human PDGF-AA, and 1 ng/mL human IGF-1. The embryoid bodies adhered to the plates, and cells began to migrate onto the plastic, forming a monolayer.\nThe cell populations were further differentiated by replating the cells in a medium containing none of the mitogens, but containing 10 ng/mL Neurotrophin-3 (NT-3) and 10 ng/mL brain-derived neurotrophic factor (BDNF). Neurons with extensive processes were seen after about 7 days. […] GaIC positive cells were identified, but the cells were large and flat rather than having complex processes."}, "hES cells of the H7 line": {"system": "hES cells of the H7 line", "test": "Direct differentiation: noggin, follistatin and retinoic acid (FIG. 6)", "conditions": "15 days with Treatment D, cAMP 700 μg; antagonists used for varying time periods", "excerpt": "Noggin is apparently important at about the 1 week point (days 5 to 8), while follistatin is important at around the 2 week point (days 13 to 15), maximizing production of mature neurons rather than small neurites.\nVirtually no β-tubulin positive neurons were formed in the absence of noggin or follistatin. […] It is hypothesized that initial noggin/follistatin induction generates a neural progenitor cell, which subsequently can be induced to form neurons by the addition of other factors.\nCells were differentiated according to treatment F as previously (left 2 bars) or omitting retinoic acid (right 2 bars)."}, "hES cells": {"system": "hES cells", "test": "Effect of neurotrophins on direct differentiation, β-tubulin positive cell count", "conditions": "7 days of differentiation; BDNF 10 ng/mL, neurotrophin-3 1 ng/mL", "method": "The effect of several members of the neurotrophin growth factor family was examined. hES cells were differentiated by harvesting with collagenase, dissociating, and reseeding onto poly-ornithine coated cover slips. The cells were plated into DMEM/F12+N2+10% FBS overnight. The following day, the serum was removed from the medium and replaced with 10 ng/mL human bFGF and the growth factor being tested. After 24 hours, bFGF was removed from the medium. These cultures were fed every other day. They were fixed after 7 days of differentiation and immunostained for analysis. The number of neurons was evaluated by counting cells positive for β-tubulin. Cultures maintained in the presence of 10 ng/mL brain derived neurotrophic factor (BDNF) formed approximately 3-fold more neurons than the control cultures. Cultures maintained in neurotrophin-3 (1 ng/mL) formed approximately 2-fold more neurons than control cultures."}}}
{"molecule": "NCCCC(=O)O", "note": "[GABA, γ-amino butyric acid]", "values": [{"measurement": "cells that responded (calcium rise)", "setting": "hES cell derived neurons", "value": 26}]}
{"molecule": "CC1=C(/C=C/C(C)=C/C=C/C(C)=C/C(=O)O)C(C)(C)CCC1", "note": "[retinoic acid]", "values": [{"measurement": "MAP-2 positive cells", "setting": "[1]", "value": "~26", "unit": "%"}]}
{"molecule": "CC(=O)OCC[N+](C)(C)C", "note": "[acetylcholine]", "values": [{"measurement": "cells that responded (calcium rise)", "setting": "hES cell derived neurons", "value": 26}]}
{"molecule": "Nc1ncnc2c1ncn2[C@@H]1O[C@H](COP(=O)(O)OP(=O)(O)OP(=O)(O)O)[C@@H](O)[C@H]1O", "note": "[ATP]", "values": [{"measurement": "cells that responded (calcium rise)", "setting": "hES cell derived neurons", "value": 26}]}
{"molecule": "B1", "values": [{"measurement": "contribution to neuron differentiation", "setting": "hES cells of the H7 line", "value": "contribute to neuron differentiation, and work synergistically"}]}
{"molecule": "B2", "values": [{"measurement": "contribution to neuron differentiation", "setting": "hES cells of the H7 line", "value": "contribute to neuron differentiation, and work synergistically"}]}
{"molecule": "B3", "values": [{"measurement": "neurons formed (β-tubulin positive cells) relative to control cultures", "setting": "hES cells", "value": "approximately 3 fold"}]}
{"molecule": "B4", "values": [{"measurement": "neurons formed (β-tubulin positive cells) relative to control cultures", "setting": "hES cells", "value": "approximately 2 fold"}]}
